Assay results as given in ChEMBL document CHEMBL4373699, “Structure-Guided Discovery of a Selective Mcl-1 Inhibitor with Cellular Activity” (J Med Chem, 2019).

Columns and labels:
Bcl-2-like protein 1 [1] = target: T1, Bcl-2-like protein 1 (Homo sapiens, UniProt Q07817); assay: Inhibition of Bcl-XL (unknown origin) by fluorescence polarization assay
[2] = target: T2, Induced myeloid leukemia cell differentiation protein Mcl-1 (Homo sapiens, UniProt Q07820); assay: biochemical
[3] = target: T3, Apoptosis regulator Bcl-2 (Homo sapiens, UniProt P10415); assay: biochemical
Cytochrome P450 2D6 = Cytochrome P450 2D6 (Homo sapiens, UniProt P10635)
Description: Inhibition of human CYP2D6

Cytochrome P450 2C9 = Cytochrome P450 2C9 (Homo sapiens, UniProt P11712)
Description: Inhibition of human CYP2C9

in vivo [4] = conditions: mouse, iv, 1 mg/kg
Description: AUCt in mouse at 1 mpk, iv

[5] = human, plasma
Description: Fraction unbound in human plasma

in vivo [6] = conditions: mouse, po, 3 mg/kg
Description: Oral bioavailability in mouse at 3 mpk

in vivo [7] = conditions: mouse, po, 3 mg/kg; remark: listed apart in the source
Description: AUCt in mouse at 3 mpk, po

in vivo [8] = conditions: mouse, iv, 1 mg/kg; remark: listed apart in the source
Description: Half-life in mouse at 1 mpk, iv

in vivo [9] = conditions: mouse, iv, 1 mg/kg; remark: listed apart in the source
Description: Volume of distribution in mouse at 1 mpk, iv

Cytochrome P450 3A4 = Cytochrome P450 3A4 (Homo sapiens, UniProt P08684); assay: Inhibition of human CYP3A4; format: ADME
in vivo [10] = conditions: mouse, po, 3 mg/kg; remark: listed apart in the source
Description: Half-life in mouse at 3 mpk, po

Cytochrome P450 1A2 = target: T4, Cytochrome P450 1A2 (Homo sapiens, UniProt P05177)
T4 sequence (P05177 whole entry): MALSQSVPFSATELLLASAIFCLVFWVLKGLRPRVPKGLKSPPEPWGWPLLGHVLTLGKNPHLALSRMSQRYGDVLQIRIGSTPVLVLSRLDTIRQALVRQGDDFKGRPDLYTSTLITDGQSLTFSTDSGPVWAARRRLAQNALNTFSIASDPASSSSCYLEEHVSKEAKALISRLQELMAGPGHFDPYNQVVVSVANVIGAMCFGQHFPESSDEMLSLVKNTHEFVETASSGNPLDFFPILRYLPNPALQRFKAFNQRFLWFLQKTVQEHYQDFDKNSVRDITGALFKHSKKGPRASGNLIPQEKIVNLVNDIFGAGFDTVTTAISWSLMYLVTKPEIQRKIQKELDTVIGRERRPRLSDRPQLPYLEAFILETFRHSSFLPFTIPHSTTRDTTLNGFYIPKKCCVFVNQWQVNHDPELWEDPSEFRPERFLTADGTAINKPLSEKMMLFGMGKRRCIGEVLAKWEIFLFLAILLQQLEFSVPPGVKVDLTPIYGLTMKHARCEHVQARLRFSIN
Description: Inhibition of human CYP1A2

in vivo [11] = conditions: mouse, plasma, iv, 1 mg/kg
Description: Plasma clearance in mouse at 1 mpk, iv

[12] = mouse, plasma
Description: Fraction unbound in mouse plasma

in vivo [13] = conditions: mouse, po, 3 mg/kg; remark: listed apart in the source
Description: Cmax in mouse at 3 mpk, po

Bcl-2-like protein 1 [14] = target: T1, Bcl-2-like protein 1; assay: Inhibition of Bcl-XL (unknown origin) at 10 uM by fluorescence polarization assay relative to control
[15] = target: T3, Apoptosis regulator Bcl-2; assay: Displacement of N-terminal fluorescein labelled Puma-BH3 peptide from human N-terminal thrombin cleavage site-fused/His6-tagged Bcl-2 expressed in Escherichia coliBL21(DE3) pLysS cells at 10 uM by fluorescence polarization assay relative to control
[16] = target: T2, Induced myeloid leukemia cell differentiation protein Mcl-1; assay: biochemical; remark: listed apart in the source
Description: Binding affinity to TEV-fused His-tagged human Mcl-1 expressed in Escherichia coliBL21(DE3) pLysS cells by Isothermal Titration Calorimetry

Bcl-2-like protein 1 [17] = target: T1, Bcl-2-like protein 1; assay: Inhibition of Bcl-XL (unknown origin) at 0.5 mM by fluorescence polarization assay relative to control

T2 sequence (Q07820 whole entry): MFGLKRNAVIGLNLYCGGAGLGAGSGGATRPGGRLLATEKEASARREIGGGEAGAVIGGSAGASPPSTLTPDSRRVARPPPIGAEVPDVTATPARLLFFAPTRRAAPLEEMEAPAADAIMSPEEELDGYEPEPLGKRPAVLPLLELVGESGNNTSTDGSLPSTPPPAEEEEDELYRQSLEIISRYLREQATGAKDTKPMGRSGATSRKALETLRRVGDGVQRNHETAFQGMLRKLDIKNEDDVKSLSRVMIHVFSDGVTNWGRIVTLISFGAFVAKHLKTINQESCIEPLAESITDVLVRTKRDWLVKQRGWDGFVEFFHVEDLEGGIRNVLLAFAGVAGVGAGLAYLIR
T3 sequence (P10415 whole entry): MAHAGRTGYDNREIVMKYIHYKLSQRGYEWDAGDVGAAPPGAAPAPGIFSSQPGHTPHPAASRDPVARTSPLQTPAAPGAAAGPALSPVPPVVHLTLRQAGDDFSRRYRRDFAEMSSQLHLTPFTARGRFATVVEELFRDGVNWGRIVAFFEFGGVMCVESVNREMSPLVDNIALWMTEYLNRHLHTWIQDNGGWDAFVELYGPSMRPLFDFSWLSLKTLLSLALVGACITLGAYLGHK
T1 sequence (Q07817 whole entry): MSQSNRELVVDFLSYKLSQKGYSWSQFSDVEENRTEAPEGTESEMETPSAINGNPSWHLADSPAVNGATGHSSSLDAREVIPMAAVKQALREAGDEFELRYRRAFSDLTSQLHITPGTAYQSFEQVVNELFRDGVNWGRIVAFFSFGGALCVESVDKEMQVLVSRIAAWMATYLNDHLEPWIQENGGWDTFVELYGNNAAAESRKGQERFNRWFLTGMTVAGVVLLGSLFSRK
Sequence of Cytochrome P450 2C9 (P11712 whole entry): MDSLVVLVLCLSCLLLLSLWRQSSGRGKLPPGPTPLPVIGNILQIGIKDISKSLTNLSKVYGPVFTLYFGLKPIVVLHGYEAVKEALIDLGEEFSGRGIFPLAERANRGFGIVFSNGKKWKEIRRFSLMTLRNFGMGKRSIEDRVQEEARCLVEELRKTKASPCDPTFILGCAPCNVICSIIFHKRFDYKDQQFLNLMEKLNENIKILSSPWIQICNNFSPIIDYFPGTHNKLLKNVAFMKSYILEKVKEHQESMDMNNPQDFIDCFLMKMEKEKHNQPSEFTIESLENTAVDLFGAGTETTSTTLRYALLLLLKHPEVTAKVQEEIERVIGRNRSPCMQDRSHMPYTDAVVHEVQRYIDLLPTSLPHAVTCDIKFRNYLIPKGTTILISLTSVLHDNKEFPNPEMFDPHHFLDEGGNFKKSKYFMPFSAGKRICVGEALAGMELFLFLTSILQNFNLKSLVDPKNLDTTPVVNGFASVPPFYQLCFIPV
Sequence of Cytochrome P450 2D6 (P10635 whole entry): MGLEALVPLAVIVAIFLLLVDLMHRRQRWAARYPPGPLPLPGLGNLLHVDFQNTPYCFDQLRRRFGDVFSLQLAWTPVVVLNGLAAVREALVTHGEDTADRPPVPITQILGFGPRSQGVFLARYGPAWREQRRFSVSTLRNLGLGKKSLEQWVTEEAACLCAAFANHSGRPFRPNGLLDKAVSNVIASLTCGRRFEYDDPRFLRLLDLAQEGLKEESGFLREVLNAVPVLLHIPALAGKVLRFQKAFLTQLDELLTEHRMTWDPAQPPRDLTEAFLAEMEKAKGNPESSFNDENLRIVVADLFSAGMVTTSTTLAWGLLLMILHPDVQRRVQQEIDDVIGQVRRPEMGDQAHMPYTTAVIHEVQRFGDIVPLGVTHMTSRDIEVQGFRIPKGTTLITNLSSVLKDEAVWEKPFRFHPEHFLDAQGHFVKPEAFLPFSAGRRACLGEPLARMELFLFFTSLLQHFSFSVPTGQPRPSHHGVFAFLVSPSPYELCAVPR
Sequence of Cytochrome P450 3A4 (P08684 whole entry): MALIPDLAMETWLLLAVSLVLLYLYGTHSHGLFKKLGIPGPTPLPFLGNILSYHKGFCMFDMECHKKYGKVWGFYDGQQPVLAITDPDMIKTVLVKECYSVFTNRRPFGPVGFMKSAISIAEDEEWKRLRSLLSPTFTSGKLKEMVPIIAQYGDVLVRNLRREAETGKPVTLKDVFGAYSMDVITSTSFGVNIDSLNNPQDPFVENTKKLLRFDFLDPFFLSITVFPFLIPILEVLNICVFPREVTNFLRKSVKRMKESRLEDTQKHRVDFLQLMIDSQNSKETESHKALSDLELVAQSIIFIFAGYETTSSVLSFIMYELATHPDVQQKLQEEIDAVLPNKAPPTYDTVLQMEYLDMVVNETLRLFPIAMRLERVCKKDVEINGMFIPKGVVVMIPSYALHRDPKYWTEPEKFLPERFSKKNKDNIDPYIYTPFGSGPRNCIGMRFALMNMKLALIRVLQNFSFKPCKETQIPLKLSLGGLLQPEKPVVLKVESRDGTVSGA

Row | SMILES | Ki (Bcl-2-like protein 1 [1]) | Ki [2] | Ki [3] | also measured
1 | CCc1sc2ncnc(NC(C(=O)O)c3ccccc3)c2c1-c1cccc(Oc2ccc(F)cc2)c1 (racemic) | 15 µM | 68 µM | 13 µM | –
2 | CCc1sc2ncnc(N[C@H](C)C(=O)O)c2c1-c1ccccc1OCc1ccccc1 | – | 24 µM | – | –
3 | CCc1sc2ncnc(N[C@@H](Cc3ccccc3)C(=O)O)c2c1-c1cccc(O)c1 | – | 58 µM | – | –
4 | CCc1sc2ncnc(N[C@@H](C)C(=O)O)c2c1-c1cccc(Oc2ccc(F)cc2)c1 | 33 µM | 130 µM | 98 µM | –
5 | CCc1sc2ncnc(N[C@@H](C)C(=O)O)c2c1-c1ccc(SC)cc1 | 216 µM | 44 µM | 359 µM | –
6 | CCc1sc2ncnc(N[C@H](C)C(=O)O)c2c1-c1ccc2ccccc2c1 | – | 110 µM | – | –
7 | CCc1sc2ncnc(N[C@H](CC3CCCCC3)C(=O)O)c2c1-c1cccc(Oc2ccc(F)cc2)c1 | 17 µM | 53 µM | 8.1 µM | –
8 | CCc1sc2ncnc(N[C@H](C)C(=O)O)c2c1-c1ccccc1C | – | 100 µM | – | –
9 | CCc1sc2ncnc(NC(CO)C(=O)O)c2c1-c1cccc(Oc2ccc(F)cc2)c1 (racemic) | 87 µM | 61 µM | – | –
10 | CCNS(=O)(=O)c1cccc(-c2nc(N[C@H](C)C(=O)O)c3c(-c4cccc(Oc5ccc(F)cc5)c4)c(CC)sc3n2)c1 | 39 µM | 50 µM | 1.3 µM | –
11 | O=C(O)[C@@H](Cc1ccccc1)Nc1ncnc2sc(-c3ccccc3)c(-c3cccc(O)c3)c12 | – | 24 µM | 21 µM | –
12 | CCc1sc2ncnc(N[C@@H](C)C(=O)O)c2c1-c1cccc(C(F)(F)F)c1 | – | 21 µM | 437 µM | –
13 | CCc1sc2ncnc(N[C@@H](C)C(=O)O)c2c1CC | – | 50 µM | 74 µM | IC50 [3]: 164 µM
14 | CCc1sc2ncnc(N[C@H](C(=O)O)c3ccccc3)c2c1-c1cccc(O)c1 | 107 µM | 27 µM | 269 µM | –
15 | CCc1sc2nc(S(C)(=O)=O)nc(N[C@H](C)C(=O)O)c2c1-c1cccc(Oc2ccc(F)cc2)c1 | 26 µM | 44 µM | 51 µM | –
16 | C[C@@H](Nc1ncnc2sc(-c3ccccc3)c(-c3cccc(O)c3)c12)C(=O)O | 42 µM | 27 µM | 49 µM | –
17 | CCc1sc2ncnc(O[C@H](Cc3ccccc3)C(=O)O)c2c1-c1ccccc1C (stereo in doubt; 9d) [listing 2 of 2 here] | – | – | – | inhibition (Bcl-2-like protein 1 [14]): 2%; inhibition [15]: 5%
18 | CCc1sc2ncnc(N[C@H](Cc3ccccc3)C(=O)O)c2c1-c1ccc(OCCN2CCN(C)CC2)c(Cl)c1C (stereo in doubt; 17b) | – | 170 µM | – | –
19 | CCc1sc2ncnc(N[C@@H](Cc3ccccc3)C(=O)O)c2c1-c1cccc(Oc2ccc(F)cc2)c1 | 18 µM | 77 µM | 24 µM | –
20 | CCc1sc2ncnc(O[C@H](Cc3ccccc3)C(=O)O)c2c1-c1ccc(OCC(=O)N2CCN(C)CC2)c(Cl)c1C | – | 0.021 µM | – | –
21 | C[C@@H](Nc1ncnc2scc(-c3cccc(O)c3)c12)C(=O)O | 287 µM | 59 µM | – | –
22 | CCc1sc2ncnc(O[C@H](Cc3ccccc3)C(=O)O)c2c1-c1cccc2[nH]ccc12 (stereo in doubt; 9b) [listing 2 of 2 here] | – | – | – | inhibition [15]: 11%
23 | CCc1sc2ncnc(N[C@H](Cc3ccccc3)C(=O)O)c2c1-c1cccc(Oc2ccc(F)cc2)c1 | 24 µM | 51 µM | 24 µM | –
24 | CCc1sc2ncnc(N[C@@H](C)C(=O)O)c2c1-c1ccccc1 | – | 110 µM | 418 µM | –
25 | C=C(C)c1sc2ncnc(N[C@H](Cc3ccccc3)C(=O)O)c2c1-c1cccc(Cl)c1C | – | 19 µM | 5.4 µM | inhibition (Bcl-2-like protein 1 [17]): 35%
26 | CCc1sc2ncnc(N[C@H](C)C(=O)O)c2c1-c1cccc(O)c1 | – | 45 µM | 5 µM | –

Further molecules by falling Ki [2], results first:

Row | Ki (Bcl-2-like protein 1 [1]) | Ki [2] | Ki [3] | SMILES | also measured
27 | – | 19 µM | 6.1 µM | CCc1sc2ncnc(N[C@H](C)C(=O)O)c2c1-c1cccc(Oc2ccc(F)cc2)c1 | –
28 | – | 18 µM | – | CCc1sc2ncnc(O[C@H](C)C(=O)O)c2c1-c1ccccc1C (stereo in doubt; 7d) | –
29 | – | 15 µM | – | CCc1sc2ncnc(O[C@H](C)C(=O)O)c2c1-c1ccccc1C (stereo in doubt; 7e) | –
30 | – | 10 µM | – | CCc1sc2ncnc(N[C@H](Cc3ccccc3)C(=O)O)c2c1-c1cccc(O)c1 | –
31 | 18 µM | 8.4 µM | 4.1 µM | CCc1sc2nc(-c3cccnc3)nc(N[C@H](C)C(=O)O)c2c1-c1cccc(Oc2ccc(F)cc2)c1 | –
32 | – | 8.1 µM | – | CCc1sc2ncnc(O[C@H](C)C(=O)O)c2c1-c1ccc(C(C)C)cc1 | –
33 | 319 µM | 7.7 µM | 470 µM | CCc1sc2ncnc(N[C@@H](C(=O)O)c3ccccc3)c2c1-c1cccc(O)c1 | –
34 | – | 6 µM | – | CCc1sc2ncnc(O[C@H](C)C(=O)O)c2c1-c1ccc2ccccc2c1 | –
35 | – | 5.7 µM | – | CCc1sc2ncnc(N[C@H](Cc3ccccc3)C(=O)O)c2c1-c1cccc2[nH]ccc12 (stereo in doubt; 8b) | –
36 | – | 5.3 µM | – | CCc1sc2ncnc(O[C@H](Cc3ccccc3)C(=O)O)c2c1-c1cccc(Br)c1C (stereo in doubt; 10a) | –
37 | – | 3.4 µM | – | CCc1sc2ncnc(O[C@H](Cc3ccccc3)C(=O)O)c2c1-c1ccccc1C (stereo in doubt; 9c) | –
38 | – | 2 µM | – | CCc1sc2ncnc(N[C@H](Cc3ccccc3OCCN3CCN(C)CC3)C(=O)O)c2c1-c1cccc(Cl)c1C | Kd [16]: 0.36 µM
39 | 135 µM | 1.6 µM | – | CCc1sc2ncnc(N[C@H](Cc3ccccc3)C(=O)O)c2c1-c1cccc2[nH]ccc12 (stereo in doubt; 8a) | –
40 | – | 0.89 µM | – | CCc1sc2ncnc(O[C@H](Cc3ccccc3)C(=O)O)c2c1-c1ccccc1C (stereo in doubt; 9d) [listing 1 of 2 here] | –
41 | – | 0.81 µM | 36 µM | CCc1sc2ncnc(O[C@H](Cc3ccccc3)C(=O)O)c2c1-c1cccc(Cl)c1C | –
42 | – | 0.64 µM | – | CCc1sc2ncnc(O[C@H](Cc3ccccc3)C(=O)O)c2c1-c1cccc2[nH]ccc12 (stereo in doubt; 9b) [listing 1 of 2 here] | –
43 | – | 0.49 µM | – | CCc1sc2ncnc(O[C@H](Cc3ccccc3)C(=O)O)c2c1-c1cccc2[nH]ccc12 (stereo in doubt; 9a) | –
44 | – | 0.33 µM | – | CCc1sc2ncnc(O[C@H](Cc3ccccc3)C(=O)O)c2c1-c1cccc(Br)c1C (stereo in doubt; 10b) | –
45 | – | 0.26 µM | – | CCc1sc2ncnc(N[C@H](Cc3ccccc3OC)C(=O)O)c2c1-c1cccc(Cl)c1C | Kd [16]: 0.024 µM
46 | – | 0.22 µM | – | CCc1sc2ncnc(N[C@H](Cc3ccccc3)C(=O)O)c2c1-c1ccc(OCCN2CCN(C)CC2)c(Cl)c1C (stereo in doubt; 17a) | IC50 (Cytochrome P450 2D6): ≥ 20 µM; IC50 (Cytochrome P450 2C9): ≥ 20 µM; AUC(0-t) (in vivo [4]): 509 ng·h/mL; Fu [5]: 0.2%; bioavailability (in vivo [6]): 16%; AUC(0-t) (in vivo [7]): 168 ng·h/mL; half-life (in vivo [8]): 0.65 h; Vd (in vivo [9]): 0.9 L/kg; IC50 (Cytochrome P450 3A4): 5.2 µM; half-life (in vivo [10]): 3.8 h; IC50 (Cytochrome P450 1A2): ≥ 20 µM; clearance (in vivo [11]): 33 mL/min/kg; Fu [12]: 0.2%; Cmax (in vivo [13]): 64 ng/mL
47 | – | 0.076 µM | – | CCc1sc2ncnc(O[C@H](Cc3ccccc3)C(=O)O)c2c1-c1cc2cc(CN(C)C)oc2c(Cl)c1C | –
48 | – | 0.032 µM | – | CCc1sc2ncnc(O[C@H](Cc3ccccc3)C(=O)O)c2c1-c1cc(CN2CCN(C)CC2)c(O)c(Cl)c1C | –
